Experimental findings from a melting point compilation (Tetko et al.; mined from patent text by program, amines drawn as free bases though some values may be those of a salt) are described below.

Structures are written as SMILES.

A word on the melting point: it is the temperature, or range, at which the solid turns liquid. Consider `CNC(=O)c1ccc(F)c2c1CC(N(CCc1c[nH]c3ccc(F)cc13)CC1CC1)CO2` (stereo not given), for which the melting point was 138 °C.

For the compound `CCCCn1c(=S)sc2c(=N)n(NC(N)=O)cnc21`, the melting point turned out to be 222 °C.

`COC(=O)c1ccc(Cn2c(=O)c3cc(C(=O)NCc4ccc(OC)cc4)ccc3n(C)c2=O)cc1` showed a melting point of 189 °C.

Regarding `CCOC(=O)CNC(=O)CCCCCNC(=O)c1cccc(C(F)(F)F)c1`, the melting point fell in the range of 102 to 104 °C.

`N#Cc1c(N2CCN(C(=O)c3cccs3)CC2)c2cccnc2n(CC(=O)c2ccccc2)c1=O` gave a melting point of 269 °C.

`CN1C(=O)CCC1CN1C(=O)C2(COc3cc4c(cc32)CCO4)c2ccccc21` (stereo not given) registered a melting point of 72 to 76 °C.

Compound `Cc1ccc(CN2C(=O)[C@@H](NC(=O)Cc3ccccc3)[C@H]2CO)c(C)c1` (relative stereo) gave a melting point of 152 to 154 °C.

Compound `CSc1c(C(C)C(=O)O)n(Cc2ccc(Cl)cc2)c2ccc(F)cc12` (stereo not given) displayed a melting point of 136 to 140 °C.

As to `Cc1nc(C(F)(F)F)ccc1C(=O)Nc1ccccc1`, the melting point came out at 161 °C.

In turn, `COC(=O)c1cc2nc(C)n(C)c2cc1C(=O)OC` came in with a melting point of 147 to 148 °C.

In turn, `CCN(CC)C(=O)Oc1cc(-c2cccc(C(F)(F)F)c2)nc2ccccc12` returned a melting point of 96 °C.

Consider `CCOC(=O)c1cn(-c2ccc(F)c(OC)c2)c2c(Cl)c(F)c(F)cc2c1=O`, for which the melting point lay within 245 to 246 °C.

Regarding `CC(=O)N1N=C(c2ccc(N)c(C)c2)c2cc3c(cc2C[C@H]1C)OCO3`, the melting point is 123 to 130 °C.

The compound `Cc1nc2n(c(=O)c1CCN1CCC(c3noc4cc(F)ccc34)CC1)CC(O)CC2` (stereo not given) had a melting point of 156 °C.

`CCOc1ccc(C(CC(=O)OC)N2C(=O)c3ccc(N)cc3C2=O)cc1OCC` (stereo not given) had a melting point of 143 to 145 °C.

In the case of `Cc1cnc(N)c2nc(C)n(CC(C)C)c12`, the melting point was in the range of 178 to 180 °C.

Compound `Cc1ccc(C(=O)NCc2ccncc2)cc1` registered a melting point of 227 °C.

`CC(=O)NCCC1CCc2ccn3ncc(C)c3c21` (stereo not given) returned a melting point of 121 to 122 °C.

For the compound `COc1ccc(Cn2cnc3c2CC(C(=O)O)N(C(=O)C(c2ccccc2)c2ccccc2)C3)cc1C` (stereo not given), the melting point is 222 to 225 °C.

For `COC1(OC)C(=O)N(C)c2ccc(I)cc21`, the melting point lay in the range of 101 to 103 °C.

The compound `CC(C)(C)NC(=O)[C@@H]1C[C@H](Cl)CN1C(=O)[C@@H](O)[C@@H](N)Cc1ccccc1` came in with a melting point of 126 to 130 °C.

`CCCCCCCC(CCCCCCCCC(CCCCCCC)NC(C)=O)NC(C)=O` (stereo not given) showed a melting point of 158 to 162 °C.

The compound `CC1CCC(Nc2nccc(Oc3ccc(NC(=O)c4cc(F)cc(N5CCOCC5)c4)c4ccccc34)n2)CC1` (stereo not given) displayed a melting point of 116 to 117 °C.

`CC(=O)SCCS(=O)(=O)N1CCC[C@H]1C(=O)O` had a melting point of 63 to 67 °C.

With `COC(CNC(=O)CN1C(=O)C(C)=C(C)C1=O)OC`, the melting point was in the range of 99.4 to 99.9 °C.

In turn, `Cc1ccccc1Sc1c(N)cc(C(=O)O)cc1S(N)(=O)=O` had a melting point of 277 °C.

`CCC(CC)Nc1cc(C(=O)O)ccc1N1C(=O)CCC1(CO)CO` showed a melting point of 220 to 221 °C.

`Cc1ccc(Nc2c(F)cccc2Cl)c(CC(=O)O)c1` registered a melting point of 152 to 154 °C.

On to `CC(=S)NCC1CN(c2ccc(N(C)C=O)c(F)c2)C(=O)O1` (stereo not given), for which the melting point lay within 105 to 107 °C.

Consider `COCCN(C1CC(C)(C)Oc2ccc(OCc3ccccc3)cc21)S(C)(=O)=O` (stereo not given), for which the melting point fell in the range of 66 to 68 °C.

As to `CS(=O)(=O)c1ccc(-c2cc(/C=C/CO)nn2C2CCCCC2)cc1`, the melting point turned out to be 121 °C.

On to `COC(=O)CCc1oc2ccc(C#N)cc2c1C(=O)c1ccc(O)cc1`, for which the melting point was in the range of 156 to 158 °C.

For `NS(=O)(=O)NC(=O)N1C[C@H](NC(=O)Cc2ccccc2)C1=O`, the melting point came out at 137 °C.

Take `CCCCCCCCCCCCCCCCCCN(C(=O)CCCCCCCCCCC)C1O[C@H](CO)[C@@H](O)[C@H](O)[C@H]1NC(=O)CCCCCCCCCCC` (stereo not given in full): the melting point is 86 °C.

`NC(=O)C(CCc1ccccc1)NC(=O)c1ccc2[nH]c(-c3ccccc3)c(-c3ccccc3)c2c1` (stereo not given) gave a melting point of 120 to 125 °C.

In the case of `CCOCCOC(=O)C(=O)Nc1nc(-c2ccc(C(C)(C)C)cc2)cs1`, the melting point was 158 to 160 °C.

In turn, `COC(=O)Cc1ccccc1Oc1cccc(O)c1` yielded a melting point of 115 to 116 °C.

Compound `COc1ccc(C(=O)C2=C(O)C(=O)N(c3nnc(C(F)(F)F)s3)C2c2ccc(C(C)(C)C)cc2)cc1` (stereo not given) displayed a melting point of 271 °C.

With `COCCCCCCCCCCCC(N)=O`, the melting point lay within 83.9 to 85.6 °C.

For the compound `CCC(CC)N1CC2=C3C(=NN(c4ccc(C(C)C)cc4Br)C(=O)N3CC2)C(C)=N1`, the melting point was 149 to 150 °C.

`CCN(CC)C(=O)c1ccc2ccccc2c1-c1ccc(F)cc1` gave a melting point of 103 to 104 °C.

For `CC12CCC3(CC1CCC1C2CCC2(C)C1CC(O)C2N=[N+]=[N-])OCCO3` (stereo not given), the melting point was in the range of 112 to 116 °C.

On to `N#Cc1cc(-c2ncccc2C(=O)O)ccc1OCCc1ccccc1Cl`, for which the melting point was in the range of 187 to 188 °C.

As to `COC(=O)CCc1cnoc1-c1cc(Cl)c(Cl)s1`, the melting point was 49 to 50 °C.

Regarding `N#CC(C(N)=O)c1ccccc1` (stereo not given), the melting point lay in the range of 148 to 150 °C.

For the compound `O=c1ccc(C(c2ccccc2)c2ccccc2)c[nH]1`, the melting point lay within 174 to 176 °C.

`COC(=O)c1cc(-c2ccc(OC)c(OC)c2)nc2ccc(Br)cc12` had a melting point of 154 °C.

For the compound `Nc1ccc(Oc2cc(C34CCCCC3C(=O)NC4=O)c(F)cc2Cl)cc1` (stereo not given), the melting point was in the range of 213 to 215 °C.

For `N#CNC(=NCCCOc1ccccc1)Nc1cncc(Br)c1`, the melting point was in the range of 129 to 130 °C.

In turn, `COc1cc(N)c(Cl)cc1C(=O)CC(O)c1ccncc1` (stereo not given) gave a melting point of 181 to 183 °C.

As to `O=C(Nc1ccc(-n2nc(C(F)(F)F)cc2C2CC2)c(F)c1)c1c(Cl)cncc1Cl`, the melting point was in the range of 218 to 223 °C.

For the compound `CC1CC(N2C(=O)c3ccccc3C2=O)C(=O)NC1=O` (stereo not given), the melting point lay in the range of 270 to 272 °C.

In the case of `CC1NC(=O)NN=C1c1ccc(NC(=O)CO)cc1` (stereo not given), the melting point lay in the range of 246 to 248 °C.

As for `COC(=O)C(C)(N)Cc1c[nH]c2ccc(OCC3CC3)cc12` (racemic), the melting point was determined as 172 °C.

`O=C(O)C(Cc1ccccc1)C(O)CCCCCOCc1ccccc1` (stereo not given) returned a melting point of 66 to 67 °C.

For `Cc1cc(-n2ccc(OCc3ccc(C(F)(F)F)cc3)cc2=O)sc1C(=O)NCc1ccccc1`, the melting point was in the range of 225 to 227 °C.

In turn, `COCNC(=O)NC(=O)C(C#N)=NOC` displayed a melting point of 164 to 165 °C.

`N#CC(N)COc1ccc(Oc2ccccc2)cc1` (stereo not given): the melting point came to 76.7 °C.

As for `CC1OC(Cn2cncn2)(c2ccc(F)cc2F)C1(C)C` (stereo not given), the melting point was 112 to 113 °C.

`COc1ccc(-c2cnc3cc4cnn(CCOC(C)=O)c4cc3n2)cc1F` displayed a melting point of 164 to 166 °C.

On to `FC(F)(F)COc1ccccc1N1CCNCC1`, for which the melting point lay in the range of 107 to 108 °C.

As for `COc1ccc2c(c1OC)CCC1CN(C(=O)CCc3ccc([N+](=O)[O-])cc3)CC21` (stereo not given), the melting point is 231 to 234 °C.

Turning to `CON=C(c1ccccc1COc1cccc(Cl)c1)n1ccnc1`, the melting point is 96.5 to 97.5 °C.

`O=C1c2cc(Cl)ccc2-n2c1nc1ccccc1c2=O` registered a melting point of 295 to 296 °C.

Compound `CCCc1c(C(=O)C(C)C)c2ccc(C(N)=O)cc2n1Cc1ccc(Br)cc1F` gave a melting point of 197 to 198 °C.

Compound `Oc1ccc(Nc2nc(Cl)cc3ccccc23)cc1` registered a melting point of 170 °C.

Consider `Cn1nc(C(F)(F)F)c(CSC2=NOC(C)(CCl)C2)c1O` (stereo not given), for which the melting point fell in the range of 111 to 112 °C.

`CC1(C)C=C(n2cccnc2=O)c2cc(C#N)ccc2O1` registered a melting point of 250 to 252 °C.

In the case of `FC1(N2CCOCC2)C=C(Cl)C=CC1NC(=S)C1C=CCCC1` (stereo not given), the melting point lay in the range of 86 to 88 °C.

`CC12CCC(O)CC1CCC1C2CCC2(C)C(=O)CCC12F` (stereo not given) displayed a melting point of 201 to 202 °C.

Consider `CCCCCCCCOC(=O)NCCCCCCNC(=O)OCCCCCCCC`, for which the melting point lay in the range of 106 to 107 °C.

For `CCCCCCCSc1ccc(-c2ccc(C#N)cc2)cc1`, the melting point was found to be 64.4 °C.

`ClCc1nnc2n1-c1sc(Cl)cc1C(c1ccccc1Cl)=NC2` had a melting point of 101 to 103 °C.

For `Cc1c(Sc2cccnc2)sc2ccc(C(=O)O)cc12`, the melting point lay within 220 to 222 °C.

Take `COc1ccc(C(CCC(C)=O)C(=O)c2ccc(OCc3ccccc3)cc2)cc1` (stereo not given): the melting point was 93 to 94 °C.

`CCCc1ccc(Oc2ccc3c(c2)C=C(C(=O)Nc2ccc(CN(C)C4CCOCC4)cc2)CCS3(=O)=O)cc1` yielded a melting point of 147 to 149 °C.

With `CC#CCOc1ccc(S(=O)(=O)NCCC(=O)OC(C)(C)C)cc1`, the melting point lay in the range of 63 to 65 °C.

The compound `COc1cccc(-n2ncc(C(=O)O)c2C(N)=O)c1` came in with a melting point of 213 to 216 °C.

`Cc1cc(C)cc(-c2cnn3c(-c4cccc(-c5nnn(Cc6ccccn6)n5)c4)ccnc23)c1` displayed a melting point of 77 °C.

`COc1cc(C(C)=O)ccc1OCCCCN1CCC(c2noc3ccccc23)CC1` came in with a melting point of 99 to 101 °C.

As to `Sc1ncc2c(n1)-c1ccc(Cl)cc1C(c1ccccc1Cl)=NC2`, the melting point lay within 232 to 234 °C.

`COc1ccnc(CCc2nc3cc(-c4ccc(C#N)cc4)cnc3[nH]2)c1` yielded a melting point of 241 to 242 °C.

As to `CC(C)N1CCC(Nc2nc3cncnc3n2Cc2ccc(F)cc2)CC1`, the melting point came to 186 °C.

`CCOC(=O)CCCCC(=O)c1[nH]c(=O)[nH]c1C`: the melting point lay in the range of 170 to 172 °C.

On to `O=S1CCNCc2c(Cl)cccc21` (stereo not given), for which the melting point lay within 125 to 126 °C.

Consider `COc1ccc(C=Cc2cc(OC)cc(OC)c2)cc1`, for which the melting point lay in the range of 55 to 56 °C.

With `ClC(Cl)(Cl)c1nncs1`, the melting point was 58 °C.

As for `Cc1cc(C(=O)N2Cc3cccn3Cc3ccccc32)cc(C)c1-n1c(C)ccc1C`, the melting point lay within 104 to 106 °C.

`CCCCCCCCCCCCCCOc1ccc(C(=O)Cl)cc1OCCCCCCCCCCCCCC` had a melting point of 68 to 70 °C.

Consider `O=C(CCNCC(O)COc1cccc2occc12)NCc1ccccc1` (stereo not given), for which the melting point was 109 to 110 °C.
